Reference: publication PMC5218480 (PLoS ONE, 2017)

System: MV-4-11 cells
Experiment: Gene expression microarray analysis (Affymetrix PrimeView) and GSEA
Type: cell-based, human
Set-up: RFU PODN (11730768_x_at) / Fold change /veh PODN (11730768_x_at) / RFU LINC00158 (11744669_a_at) / Fold change /veh LINC00158 (11744669_a_at) / RFU DUSP10 (11751237_a_at) / Fold change /veh DUSP10 (11751237_a_at) / RFU ID3 (11757404_x_at) / Fold change /veh ID3 (11757404_x_at) / RFU PLEKHG5 (11737974_s_at) / Fold change /veh PLEKHG5 (11737974_s_at) / RFU LRRC4B (11730491_at) / Fold change /veh LRRC4B (11730491_at) / RFU GIMAP4 (11747438_a_at) / Fold change /veh GIMAP4 (11747438_a_at) / RFU KRT8 (11758183_x_at) / Fold change /veh KRT8 (11758183_x_at) / RFU CNN1 (11734310_a_at) / Fold change /veh CNN1 (11734310_a_at) / RFU VPS37D (11726825_at) / Fold change /veh VPS37D (11726825_at) / RFU C10orf10 (11716522_x_at) / Fold change /veh C10orf10 (11716522_x_at) / RFU KIR2DL2 /// KIR2DL4 /// KIR2DL5A /// KIR2DL5B /// KIR2DS1 /// KIR2DS2 /// KIR2DS3 /// KIR2DS4 /// KIR3DL3 /// KIR3DL3 /// KIR3DS1 (11738374_at) / Fold change /veh KIR2DL2 /// KIR2DL4 /// KIR2DL5A /// KIR2DL5B /// KIR2DS1 /// KIR2DS2 /// KIR2DS3 /// KIR2DS4 /// KIR3DL3 /// KIR3DL3 /// KIR3DS1 (11738374_at) / RFU C1QL1 (11718748_at) / Fold change /veh C1QL1 (11718748_at) / RFU TMPRSS4 (11747572_a_at) / Fold change /veh TMPRSS4 (11747572_a_at) / RFU HAMP (11756126_x_at) / Fold change /veh HAMP (11756126_x_at) / RFU RNFT2 (11725882_a_at) / Fold change /veh RNFT2 (11725882_a_at) / RFU NR4A2 (11747474_a_at) / Fold change /veh NR4A2 (11747474_a_at) / RFU ABCC12 (11746883_a_at) / Fold change /veh ABCC12 (11746883_a_at) / RFU TMEM136 (11760407_x_at) / Fold change /veh TMEM136 (11760407_x_at) / RFU CLDN22 /// WWC2 (11732394_at) / Fold change /veh CLDN22 /// WWC2 (11732394_at) / RFU HLA-DPB1 (11760878_x_at) / Fold change /veh HLA-DPB1 (11760878_x_at) / RFU SPINT1 (11716480_a_at) / Fold change /veh SPINT1 (11716480_a_at) / RFU GAP43 (11754022_s_at) / Fold change /veh GAP43 (11754022_s_at) / RFU A4GNT (11735810_at) / Fold change /veh A4GNT (11735810_at) / RFU PRB3 (11715151_x_at) / Fold change /veh PRB3 (11715151_x_at) / RFU TUBB4B (11761932_at) / Fold change /veh TUBB4B (11761932_at) / RFU CAPN14 (11732068_a_at) / Fold change /veh CAPN14 (11732068_a_at) / RFU TMCC2 (11721928_a_at) / Fold change /veh TMCC2 (11721928_a_at) / RFU IRGQ (11745062_a_at) / Fold change /veh IRGQ (11745062_a_at) / RFU FAM174B (11720279_a_at) / Fold change /veh FAM174B (11720279_a_at) / RFU TMPRSS4 (11748680_a_at) / Fold change /veh TMPRSS4 (11748680_a_at) / RFU FAM212B (11763350_a_at) / Fold change /veh FAM212B (11763350_a_at) / RFU PLEKHG5 (11743358_a_at) / Fold change /veh PLEKHG5 (11743358_a_at) / RFU ZSCAN30 (11745921_a_at) / Fold change /veh ZSCAN30 (11745921_a_at) / RFU CMKLR1 (11741424_a_at) / Fold change /veh CMKLR1 (11741424_a_at) / RFU LOC101060620 /// MAPK8IP1 (11723275_at) / Fold change /veh LOC101060620 /// MAPK8IP1 (11723275_at) / RFU SPTSSB (11747773_x_at) / Fold change /veh SPTSSB (11747773_x_at) / RFU PRSS12 (11739890_at) / Fold change /veh PRSS12 (11739890_at) / RFU BIN1 (11741810_x_at) / Fold change /veh BIN1 (11741810_x_at) / RFU WNT11 (11732464_a_at) / Fold change /veh WNT11 (11732464_a_at) / RFU C10orf10 (11716521_a_at) / Fold change /veh C10orf10 (11716521_a_at) / RFU C5orf56 (11738089_at) / Fold change /veh C5orf56 (11738089_at) / RFU CYB561 (11721691_x_at) / Fold change /veh CYB561 (11721691_x_at) / RFU ANKRD19P (11752326_a_at) / Fold change /veh ANKRD19P (11752326_a_at) / RFU OR2T12 /// OR2T33 /// OR2T8 (11738714_s_at) / Fold change /veh OR2T12 /// OR2T33 /// OR2T8 (11738714_s_at) / RFU VCAN (11748164_a_at) / Fold change /veh VCAN (11748164_a_at) / RFU JSRP1 (11732532_at) / Fold change /veh JSRP1 (11732532_at) / RFU KRTAP10-11 (11738290_x_at) / Fold change /veh KRTAP10-11 (11738290_x_at) / RFU MYO3A (11730013_a_at) / Fold change /veh MYO3A (11730013_a_at) / RFU EBF3 (11725865_a_at) / Fold change /veh EBF3 (11725865_a_at) / RFU CAMK2N1 (11719241_x_at) / Fold change /veh CAMK2N1 (11719241_x_at) / RFU C5orf56 (11738088_a_at) / Fold change /veh C5orf56 (11738088_a_at) / RFU OLFML3 (11715873_a_at) / Fold change /veh OLFML3 (11715873_a_at) / RFU LOC100653217 /// NTM (11731650_a_at) / Fold change /veh LOC100653217 /// NTM (11731650_a_at) / RFU MAPK11 (11762145_a_at) / Fold change /veh MAPK11 (11762145_a_at) / RFU FIZ1 (11724087_x_at) / Fold change /veh FIZ1 (11724087_x_at) / RFU OASL (11726364_x_at) / Fold change /veh OASL (11726364_x_at) / RFU SOX15 (11748057_x_at) / Fold change /veh SOX15 (11748057_x_at) / RFU CD79A (11719716_a_at) / Fold change /veh CD79A (11719716_a_at) / RFU HIST1H1D (11736915_at) / Fold change /veh HIST1H1D (11736915_at) / RFU CASKIN2 (11723855_a_at) / Fold change /veh CASKIN2 (11723855_a_at) / RFU LOC730098 (11760151_x_at) / Fold change /veh LOC730098 (11760151_x_at) / RFU OR4N2 (11742367_at) / Fold change /veh OR4N2 (11742367_at) / RFU PRRT2 (11749266_a_at) / Fold change /veh PRRT2 (11749266_a_at) / RFU SNX32 (11753110_a_at) / Fold change /veh SNX32 (11753110_a_at) / RFU CDHR5 (11726645_a_at) / Fold change /veh CDHR5 (11726645_a_at) / RFU RCAN1 (11760418_a_at) / Fold change /veh RCAN1 (11760418_a_at) / RFU FAM167A (11723789_a_at) / Fold change /veh FAM167A (11723789_a_at) / RFU FAM26E (11764081_at) / Fold change /veh FAM26E (11764081_at) / RFU ISYNA1 (11749810_s_at) / Fold change /veh ISYNA1 (11749810_s_at) / RFU ACY1 (11761880_at) / Fold change /veh ACY1 (11761880_at) / RFU 11764098_at / Fold change /veh 11764098_at / RFU SAMD14 (11745864_x_at) / Fold change /veh SAMD14 (11745864_x_at) / RFU NPB (11741838_a_at) / Fold change /veh NPB (11741838_a_at) / RFU TMPRSS6 (11731388_a_at) / Fold change /veh TMPRSS6 (11731388_a_at) / RFU KRTAP10-2 (11738614_at) / Fold change /veh KRTAP10-2 (11738614_at) / RFU ARHGAP8 /// PRR5-ARHGAP8 (11727945_x_at) / Fold change /veh ARHGAP8 /// PRR5-ARHGAP8 (11727945_x_at) / RFU KRTAP5-7 /// NADSYN1 (11734609_at) / Fold change /veh KRTAP5-7 /// NADSYN1 (11734609_at) / RFU RASL12 (11751679_a_at) / Fold change /veh RASL12 (11751679_a_at) / RFU CDKN2B (11736163_a_at) / Fold change /veh CDKN2B (11736163_a_at) / RFU PRF1 (11729649_at) / Fold change /veh PRF1 (11729649_at) / RFU, ZNF638 /// ZNF638-IT1 / Fold change vs veh, ZNF638 /// ZNF638-IT1 / RFU, PANK3 / Fold change vs veh, PANK3 / RFU, SH3YL1 / Fold change vs veh, SH3YL1 / RFU, ZEB2 / Fold change vs veh, ZEB2 / RFU, NRIP1 / Fold change vs veh, NRIP1 / RFU, PTTG1IP / Fold change vs veh, PTTG1IP / RFU, CAPN2 / Fold change vs veh, CAPN2 / RFU, MED14 / Fold change vs veh, MED14 / RFU, SNORA58 / Fold change vs veh, SNORA58 / RFU, C1orf63 / Fold change vs veh, C1orf63 / RFU, LRRFIP1 / Fold change vs veh, LRRFIP1 / RFU, NDUFAF7 / Fold change vs veh, NDUFAF7 / RFU, SLC12A2 / Fold change vs veh, SLC12A2 / RFU, IBTK / Fold change vs veh, IBTK / RFU, ESF1 / Fold change vs veh, ESF1 / Fold change vs veh, TMEM50B / RFU, TAOK1 / Fold change vs veh, TAOK1 / RFU, ACBD3 / Fold change vs veh, ACBD3 / RFU, TMA16 / Fold change vs veh, TMA16 / RFU, RWDD3 / Fold change vs veh, RWDD3 / RFU, BCAT1 / Fold change vs veh, BCAT1 / RFU, EDEM3 / Fold change vs veh, EDEM3 / RFU, TMEM33 / Fold change vs veh, TMEM33 / RFU, WDR75 / Fold change vs veh, WDR75 / RFU, AHCTF1 / Fold change vs veh, AHCTF1 / RFU, TFRC / Fold change vs veh, TFRC / RFU, ZDHHC17 / Fold change vs veh, ZDHHC17 / RFU, NOM1 / Fold change vs veh, NOM1 / RFU, ARL8B / Fold change vs veh, ARL8B / RFU, ZBTB11 / Fold change vs veh, ZBTB11 / RFU, TAMM41 / Fold change vs veh, TAMM41 / RFU, KIAA1704 /// LOC100996395 / Fold change vs veh, KIAA1704 /// LOC100996395 / RFU, ING1 / Fold change vs veh, ING1 / RFU, TRMT61B / Fold change vs veh, TRMT61B / RFU, FUBP3 / Fold change vs veh, FUBP3 / RFU, TP53 / Fold change vs veh, TP53 / RFU, TNKS2 / Fold change vs veh, TNKS2 / RFU, ZFP14 / Fold change vs veh, ZFP14 / RFU, ACTR2 / Fold change vs veh, ACTR2 / RFU, PPP3R1 / Fold change vs veh, PPP3R1 / RFU, PIK3R1 / Fold change vs veh, PIK3R1 / RFU, HNRNPA1 / Fold change vs veh, HNRNPA1 / RFU, RNF170 / Fold change vs veh, RNF170 / RFU, ZNF28 / Fold change vs veh, ZNF28 / RFU, RNGTT / Fold change vs veh, RNGTT / RFU, OGT / Fold change vs veh, OGT / RFU, BRD1 / Fold change vs veh, BRD1 / RFU, MARS / Fold change vs veh, MARS / RFU, ZNF655 / Fold change vs veh, ZNF655 / RFU, FAHD1 / Fold change vs veh, FAHD1 / RFU, BDP1 / Fold change vs veh, BDP1 / RFU, LRRCC1 / Fold change vs veh, LRRCC1 / RFU, ARID1A / Fold change vs veh, ARID1A / RFU, ZNF146 / Fold change vs veh, ZNF146 / RFU, ZNF330 / Fold change vs veh, ZNF330 / RFU, GPN3 / Fold change vs veh, GPN3 / RFU, C9orf123 / Fold change vs veh, C9orf123 / RFU, N4BP2L2 / Fold change vs veh, N4BP2L2 / RFU, ARFIP1 / Fold change vs veh, ARFIP1 / RFU, FAM179B / Fold change vs veh, FAM179B / RFU, BCL10 / Fold change vs veh, BCL10 / RFU, UHRF1BP1L / Fold change vs veh, UHRF1BP1L / RFU, BET1 / Fold change vs veh, BET1 / RFU, CNOT2 / Fold change vs veh, CNOT2 / RFU, ZNF268 / Fold change vs veh, ZNF268 / Fold change vs veh, ZNF507 / RFU, DGCR2 / Fold change vs veh, DGCR2 / RFU, WDSUB1 / Fold change vs veh, WDSUB1 / Fold change vs veh, HSP90B1 /// MIR3652 / RFU, ADSS / Fold change vs veh, ADSS / RFU, GK / Fold change vs veh, GK / RFU, ZNF148 / Fold change vs veh, ZNF148 / RFU, TAF9 / Fold change vs veh, TAF9 / RFU, SLC1A5 / Fold change vs veh, SLC1A5 / RFU, SLMO2 / Fold change vs veh, SLMO2 / RFU, ABCC4 / Fold change vs veh, ABCC4 / RFU, LOC101060439 /// RAP1B / Fold change vs veh, LOC101060439 /// RAP1B / RFU, RFX7 / Fold change vs veh, RFX7 / RFU, GTPBP10 / Fold change vs veh, GTPBP10 / RFU, CNEP1R1 / Fold change vs veh, CNEP1R1 / RFU, BIVM-ERCC5 /// ERCC5 / Fold change vs veh, BIVM-ERCC5 /// ERCC5 / RFU, ILF3 / Fold change vs veh, ILF3 / RFU 11762660_at / Fold change /veh 11762660_at / RFU VCAN (11757783_s_at) / Fold change /veh VCAN (11757783_s_at) / RFU DDX43 (11728927_at) / Fold change /veh DDX43 (11728927_at) / RFU KRT8 (11758188_x_at) / Fold change /veh KRT8 (11758188_x_at) / RFU NKD1 (11759106_at) / Fold change /veh NKD1 (11759106_at) / RFU SRD5A1 (11742802_a_at) / Fold change /veh SRD5A1 (11742802_a_at) / RFU TPSAB1 /// TPSB2 (11721975_s_at) / Fold change /veh TPSAB1 /// TPSB2 (11721975_s_at) / RFU GSTM3 (11746129_a_at) / Fold change /veh GSTM3 (11746129_a_at) / RFU IL23R (11737362_x_at) / Fold change /veh IL23R (11737362_x_at) / RFU TMEM51 (11727254_a_at) / Fold change /veh TMEM51 (11727254_a_at) / RFU PIWIL2 (11732686_x_at) / Fold change /veh PIWIL2 (11732686_x_at) / RFU ORM1 (11744905_x_at) / Fold change /veh ORM1 (11744905_x_at) / RFU CCDC152 (11743942_at) / Fold change /veh CCDC152 (11743942_at) / RFU ECM1 (11717891_a_at) / Fold change /veh ECM1 (11717891_a_at) / RFU IL23R (11748794_a_at) / Fold change /veh IL23R (11748794_a_at) / RFU TNFAIP8L3 (11732012_x_at) / Fold change /veh TNFAIP8L3 (11732012_x_at) / RFU MBOAT4 (11741988_at) / Fold change /veh MBOAT4 (11741988_at) / RFU 11764193_at / Fold change /veh 11764193_at / RFU TMEM53 (11763286_at) / Fold change /veh TMEM53 (11763286_at) / RFU MAGEB2 (11727129_at) / Fold change /veh MAGEB2 (11727129_at) / RFU TMEM200A (11744735_a_at) / Fold change /veh TMEM200A (11744735_a_at) / RFU CCDC152 (11751479_a_at) / Fold change /veh CCDC152 (11751479_a_at) / RFU FAM211A (11726209_a_at) / Fold change /veh FAM211A (11726209_a_at) / RFU RGS16 (11746705_a_at) / Fold change /veh RGS16 (11746705_a_at) / RFU VCAN (11755009_s_at) / Fold change /veh VCAN (11755009_s_at) / RFU RHOB (11743442_s_at) / Fold change /veh RHOB (11743442_s_at) / RFU RGS16 (11720943_a_at) / Fold change /veh RGS16 (11720943_a_at) / RFU RGS16 (11720944_at) / Fold change /veh RGS16 (11720944_at) / RFU, VPS4B / Fold change vs veh, VPS4B / RFU, CREB1 / Fold change vs veh, CREB1 / RFU, DNAJC13 / Fold change vs veh, DNAJC13 / RFU, GNAQ / Fold change vs veh, GNAQ / RFU, CDK5R1 / Fold change vs veh, CDK5R1 / RFU, ZRANB3 / Fold change vs veh, ZRANB3 / RFU, CUL4A / Fold change vs veh, CUL4A / RFU, CCNY / Fold change vs veh, CCNY / RFU, UFL1 / Fold change vs veh, UFL1 / RFU, COG3 / Fold change vs veh, COG3 / RFU, DIAPH2 / Fold change vs veh, DIAPH2 / RFU, SKA2 / Fold change vs veh, SKA2 / RFU, AFF3 / Fold change vs veh, AFF3 / RFU, LMF1 / Fold change vs veh, LMF1 / RFU, IPO11 / Fold change vs veh, IPO11 / RFU, DFFB / Fold change vs veh, DFFB / RFU, FOXP1 / Fold change vs veh, FOXP1 / RFU, CARD8 / Fold change vs veh, CARD8 / RFU, STRN3 / Fold change vs veh, STRN3 / RFU, ADK / Fold change vs veh, ADK / RFU, RASSF2 / Fold change vs veh, RASSF2 / RFU, WIPF1 / Fold change vs veh, WIPF1 / RFU, LARP1B / Fold change vs veh, LARP1B / RFU, RASA1 / Fold change vs veh, RASA1 / RFU, RB1 / Fold change vs veh, RB1 / RFU, PPFIA1 / Fold change vs veh, PPFIA1 / RFU, MAT2A / Fold change vs veh, MAT2A / RFU, CCT5 / Fold change vs veh, CCT5 / RFU, WDR92 / Fold change vs veh, WDR92 / RFU, CUX1 / Fold change vs veh, CUX1 / RFU, TTC7A / Fold change vs veh, TTC7A / RFU, TMEM135 / Fold change vs veh, TMEM135 / RFU, DEPTOR / Fold change vs veh, DEPTOR / RFU, CPM / Fold change vs veh, CPM / RFU, DNAJB6 / Fold change vs veh, DNAJB6 / RFU, CACNA2D3 / Fold change vs veh, CACNA2D3 / RFU, DTX4 / Fold change vs veh, DTX4 / RFU, TFCP2 / Fold change vs veh, TFCP2 / RFU, GMCL1 /// GMCL1P1 / Fold change vs veh, GMCL1 /// GMCL1P1 / RFU, AEBP2 / Fold change vs veh, AEBP2 / RFU, SNHG1 /// SNORD22 /// SNORD25 /// SNORD26 /// SNORD27 /// SNORD28 /// SNORD29 /// SNORD31 / Fold change vs veh, SNHG1 /// SNORD22 /// SNORD25 /// SNORD26 /// SNORD27 /// SNORD28 /// SNORD29 /// SNORD31 / Fold change (Aza/veh), C12orf56 (ProbeSet 11735607_a_at) / Fold change (ACY-1035/veh), C12orf56 (ProbeSet 11735607_a_at) / Fold change (Aza/veh), FGFR1OP (ProbeSet 11751329_s_at) / Fold change (ACY-1035/veh), FGFR1OP (ProbeSet 11751329_s_at) / Fold change (Aza/veh), VPS36 (ProbeSet 11739960_a_at) / Fold change (ACY-1035/veh), VPS36 (ProbeSet 11739960_a_at) / RFU SYPL1 (11715823_x_at) / Fold change /veh SYPL1 (11715823_x_at) / RFU IGFBP7 (11715501_s_at) / Fold change /veh IGFBP7 (11715501_s_at) / RFU REEP3 (11722064_at) / Fold change /veh REEP3 (11722064_at) / RFU IGLL1 (11728026_x_at) / Fold change /veh IGLL1 (11728026_x_at): dose or concentration left out as unconfirmed
Conditions: MV-4-11 cells, 48 hours

Nc1ncn([C@@H]2O[C@H](CO)[C@@H](O)[C@H]2O)c(=O)n1 [azacitidine]
RFU FAM212B (11763350_a_at): 32.55 RFU
